From ChEMBL document CHEMBL4406840, “Design and synthesis of novel artemisinin derivatives with potent activities against colorectal cancer in vitro and in vivo” (Eur J Med Chem, 2019)
The source made the active and inactive calls. The rule behind the calls is not given here.

Experiments:
HCT-116 [1] = test: cells; assay type: functional, cell-based; conditions: Homo sapiens, HCT-116, 48 h
Description: Antiproliferative activity against human HCT116 cells assessed as inhibition of cell viability after 48 hrs by MTS assay

WM 266-4 = test: cells; assay type: functional, cell-based; conditions: Homo sapiens, WM 266-4, 48 h
Description: Antiproliferative activity against human WM266.4 cells assessed as inhibition of cell viability after 48 hrs by MTS assay

HCT-116 [2] = test: Potency index, ratio of dihydroartemisinin IC50 to compound IC50 for antiproliferative activity against human HCT116 cells by MTS assay; assay type: functional
HCT-116 [3] = test: Antitumour activity against human HCT116 cells xenografted in BALB/c nude mouse assessed as tumour shrunken at 2.5 to 5 mg/kg, ip administered daily for 18 days started from 2 days after tumor cell inoculation by digital caliper method; assay type: functional, organism-based
[4] = Toxicity in BALB/c nude mouse xenografted with human HCT116 cells assessed as effect on body weight at 2.5 to 5 mg/kg, ip administered daily for 18 days; assay type: organism-based; conditions: in vivo, 432 h
HCT-116 [5] = test: Antitumour activity against human HCT116 cells xenografted in BALB/c nude mouse assessed as delay in tumour growth at 2.5 to 5 mg/kg, ip administered daily for 18 days started from 2 days after tumor cell inoculation by digital caliper method; assay type: functional, organism-based
HCT-116 [6] = conditions: Homo sapiens, at 10 mg/kg
Description: Antitumour activity against human HCT116 cells xenografted in BALB/c nude mouse assessed as reduction in tumour growth at 10 mg/kg, ip administered daily for 18 days started from 2 days after tumor cell inoculation by digital caliper method

## C[C@H]1[C@H](OC(=O)CCC(=O)O)O[C@@H]2O[C@@]3(C)CC[C@H]4[C@H](C)CC[C@@H]1[C@@]24OO3 [ARTESUNATE]
HCT-116 [1]
  IC50: 890 nM
WM 266-4
  IC50: 8.46 µM

## C[C@H]1[C@@H](OCCCCOCc2ccc3ncnc(Nc4ccc(F)c(Cl)c4)c3c2)O[C@@H]2O[C@@]3(C)CC[C@H]4[C@H](C)CC[C@@H]1[C@@]24OO3
HCT-116 [1]
  IC50: 360 nM
WM 266-4
  IC50: 3.81 µM

## C[C@H]1[C@H](OCCCOCc2ccc3ncnc(Nc4ccc(F)c(Cl)c4)c3c2)O[C@@H]2O[C@@]3(C)CC[C@H]4[C@H](C)CC[C@@H]1[C@@]24OO3
HCT-116 [1]
  IC50: 6540 nM
WM 266-4
  IC50: 15.8 µM

## C[C@H]1[C@@H](OCCCCCOc2ccc3ncnc(Nc4ccc(F)c(Cl)c4)c3c2)O[C@@H]2O[C@@]3(C)CC[C@H]4[C@H](C)CC[C@@H]1[C@@]24OO3
HCT-116 [1]
  IC50: 240 nM
WM 266-4
  IC50: 2.91 µM
HCT-116 [2]
  Ratio IC50: 10

## CC(=O)N(c1ccc(F)c(Cl)c1)c1ncnc2ccc(COC(=O)CCC(=O)N[C@@H]3O[C@@H]4O[C@@]5(C)CC[C@H]6[C@H](C)CC[C@@H]([C@H]3C)[C@@]46OO5)cc12
HCT-116 [1]
  IC50: 12900 nM
WM 266-4
  IC50: 15.4 µM

## CC(=O)N(c1ccc(F)c(Cl)c1)c1ncnc2ccc(COC(=O)CCCC(=O)O[C@@H]3O[C@@H]4O[C@@]5(C)CC[C@H]6[C@H](C)CC[C@@H]([C@H]3C)[C@@]46OO5)cc12
HCT-116 [1]
  IC50: 780 nM
WM 266-4
  IC50: 15 µM

## C[C@H]1[C@@H](OCc2ccc3ncnc(Nc4ccc(F)c(Cl)c4)c3c2)O[C@@H]2O[C@@]3(C)CC[C@H]4[C@H](C)CC[C@@H]1[C@@]24OO3
HCT-116 [1]
  IC50: 290 nM
WM 266-4
  IC50: 10.8 µM

## C[C@H]1[C@H](OCCCCOCc2ccc3ncnc(Nc4ccc(F)c(Cl)c4)c3c2)O[C@@H]2O[C@@]3(C)CC[C@H]4[C@H](C)CC[C@@H]1[C@@]24OO3
HCT-116 [1]
  IC50: 2420 nM
WM 266-4
  IC50: 12.6 µM

## CC(=O)N(c1ccc(F)c(Cl)c1)c1ncnc2ccc(COC(=O)CCCC(=O)N[C@@H]3O[C@@H]4O[C@@]5(C)CC[C@H]6[C@H](C)CC[C@@H]([C@H]3C)[C@@]46OO5)cc12
HCT-116 [1]
  IC50: 5350 nM
WM 266-4
  IC50: 5.08 µM

## C[C@H]1[C@H](OC[C@H](NC(=O)c2ccc3ncnc(Nc4ccc(F)c(Cl)c4)c3c2)c2ccccc2)O[C@@H]2O[C@@]3(C)CC[C@H]4[C@H](C)CC[C@@H]1[C@@]24OO3
HCT-116 [3]
  Activity: Active
[4]
  Activity: Non-Toxic
HCT-116 [1]
  IC50: 110 nM
HCT-116 [5]
  inhibition: Active
WM 266-4
  IC50: 6.67 µM

## C[C@H]1[C@H](O)O[C@@H]2O[C@@]3(C)CC[C@H]4[C@H](C)CC[C@@H]1[C@@]24OO3
HCT-116 [1]
  IC50: 2850 nM
WM 266-4
  IC50: > 40 µM
HCT-116 [6]
  inhibition: Active

## C[C@H]1[C@H](OC(=O)CCCC(=O)OCc2ccc3ncnc(Nc4ccc(F)c(Cl)c4)c3c2)O[C@@H]2O[C@@]3(C)CC[C@H]4[C@H](C)CC[C@@H]1[C@@]24OO3
HCT-116 [1]
  IC50: 290 nM
WM 266-4
  IC50: 11.4 µM

## C[C@H]1[C@H](OCc2ccc3ncnc(Nc4ccc(F)c(Cl)c4)c3c2)O[C@@H]2O[C@@]3(C)CC[C@H]4[C@H](C)CC[C@@H]1[C@@]24OO3
HCT-116 [1]
  IC50: 420 nM
WM 266-4
  IC50: 4.56 µM

## C[C@H]1[C@H](NC(=O)CCCCC(=O)OCc2ccc3ncnc(Nc4ccc(F)c(Cl)c4)c3c2)O[C@@H]2O[C@@]3(C)CC[C@H]4[C@H](C)CC[C@@H]1[C@@]24OO3
HCT-116 [1]
  IC50: 5680 nM
WM 266-4
  IC50: 25.3 µM

## C[C@H]1[C@H](NC(=O)CCC(=O)OCc2ccc3ncnc(Nc4ccc(F)c(Cl)c4)c3c2)O[C@@H]2O[C@@]3(C)CC[C@H]4[C@H](C)CC[C@@H]1[C@@]24OO3
HCT-116 [1]
  IC50: 2780 nM
WM 266-4
  IC50: 9.88 µM

## CC(=O)N(c1ccc(F)c(Cl)c1)c1ncnc2ccc(COC(=O)CCCCC(=O)O[C@@H]3O[C@@H]4O[C@@]5(C)CC[C@H]6[C@H](C)CC[C@@H]([C@H]3C)[C@@]46OO5)cc12
HCT-116 [1]
  IC50: 660 nM
WM 266-4
  IC50: 18.8 µM

## C[C@H]1[C@H](OC(=O)CCC(=O)OCc2ccc3ncnc(Nc4ccc(F)c(Cl)c4)c3c2)O[C@@H]2O[C@@]3(C)CC[C@H]4[C@H](C)CC[C@@H]1[C@@]24OO3
HCT-116 [1]
  IC50: 180 nM
WM 266-4
  IC50: 10.2 µM

## C[C@H]1[C@H](NC(=O)CCCC(=O)OCc2ccc3ncnc(Nc4ccc(F)c(Cl)c4)c3c2)O[C@@H]2O[C@@]3(C)CC[C@H]4[C@H](C)CC[C@@H]1[C@@]24OO3
HCT-116 [1]
  IC50: 5560 nM
WM 266-4
  IC50: 15.3 µM

## C[C@H]1[C@@H](OCCCOCc2ccc3ncnc(Nc4ccc(F)c(Cl)c4)c3c2)O[C@@H]2O[C@@]3(C)CC[C@H]4[C@H](C)CC[C@@H]1[C@@]24OO3
HCT-116 [1]
  IC50: 2110 nM
WM 266-4
  IC50: 5.18 µM

## C[C@@H]1CC[C@H]2[C@@H](C)C(O[C@H](C(=O)OCc3ccc4ncnc(Nc5ccc(F)c(Cl)c5)c4c3)c3ccccc3)O[C@@H]3O[C@@]4(C)CC[C@@H]1[C@]32OO4 (stereo partly drawn)
HCT-116 [1]
  IC50: 890 nM

## CC(=O)O[C@H]1C(=O)[C@@]2(C)[C@H]([C@H](OC(=O)c3ccccc3)[C@]3(O)C[C@H](OC(=O)[C@H](O)[C@@H](NC(=O)c4ccccc4)c4ccccc4)C(C)=C1C3(C)C)[C@]1(OC(C)=O)CO[C@@H]1C[C@@H]2O [PACLITAXEL]
WM 266-4
  IC50: 0.00032 µM

## O=C(O)c1ccc2ncnc(Nc3ccc(F)c(Cl)c3)c2c1
HCT-116 [1]
  IC50: > 40000 nM
WM 266-4
  IC50: > 40 µM

## C[C@H]1[C@H](OCCCCCOc2ccc3ncnc(Nc4ccc(F)c(Cl)c4)c3c2)O[C@@H]2O[C@@]3(C)CC[C@H]4[C@H](C)CC[C@@H]1[C@@]24OO3
HCT-116 [1]
  IC50: 350 nM
WM 266-4
  IC50: 5.7 µM

## CC(=O)N(c1ccc(F)c(Cl)c1)c1ncnc2ccc(COC(=O)CCC(=O)O[C@@H]3O[C@@H]4O[C@@]5(C)CC[C@H]6[C@H](C)CC[C@@H]([C@H]3C)[C@@]46OO5)cc12
HCT-116 [1]
  IC50: 280 nM
WM 266-4
  IC50: 9.29 µM

## C[C@@H]1CC[C@H]2[C@@H](C)C(O[C@@H](C(=O)OCc3ccc4ncnc(Nc5ccc(F)c(Cl)c5)c4c3)c3ccccc3)O[C@@H]3O[C@@]4(C)CC[C@@H]1[C@]32OO4 (stereo partly drawn)
HCT-116 [1]
  IC50: 680 nM

## C[C@H]1[C@H](OC[C@H](N)c2ccccc2)O[C@@H]2O[C@@]3(C)CC[C@H]4[C@H](C)CC[C@@H]1[C@@]24OO3
HCT-116 [1]
  IC50: 16200 nM
WM 266-4
  IC50: 15.1 µM

## C[C@H]1[C@H](OC(=O)CCCCC(=O)OCc2ccc3ncnc(Nc4ccc(F)c(Cl)c4)c3c2)O[C@@H]2O[C@@]3(C)CC[C@H]4[C@H](C)CC[C@@H]1[C@@]24OO3
HCT-116 [1]
  IC50: 310 nM
WM 266-4
  IC50: 3.51 µM

## CC(=O)N(c1ccc(F)c(Cl)c1)c1ncnc2ccc(COC(=O)CCCCC(=O)N[C@@H]3O[C@@H]4O[C@@]5(C)CC[C@H]6[C@H](C)CC[C@@H]([C@H]3C)[C@@]46OO5)cc12
HCT-116 [1]
  IC50: 11800 nM
WM 266-4
  IC50: 27.8 µM
